Key:
Type in all cases: cell-based, rat
acinar cells = assay: acinar-to-beta cell conversion in monolayer culture with differentiation factors (immunocytochemical cell counts); settings: for toxic effects on the epithelial monolayers: Jagged1 2 μg/ml, Dll4 5 μg/ml, 3 days culture; for beta cell neogenesis (acino-insular conversion): exposure of EGF and LIF treated cells to Notch1 ligands; for expression of Ngn3, Pdx1 and insulin / reduction of the number of newly formed beta cells: ligands immobilized on culture plates, EGF/LIF-treated acinar cells; for expression of Pdx1 during 72 h exposure to EGF and LIF (FIG. 2C) / expression of insulin during 72 h exposure to EGF and LIF (FIG. 2E) / re-expression of Ngn3 during 72 h exposure to EGF and LIF (FIG. 2A): n=7, compared to EGF and LIF controls
Text: Male 10-12 week old Wistar rats (Charles River Laboratories) weighing 250-300 g were used for the isolation of cells from the pancreas. Pancreata were partially dissociated with collagenase and exocrine acini were purified by centrifugal elutriation as published before (Rooman et al., 2000 Diabetologia 43:907-914). All animal experimentation was approved by the Ethical Committee of the Free University of Brussels.
Acinar cells were pre-cultured for 4 days in bacteriological Petri dishes (Nunc) in suspension culture in RPMI-1640 Glutamax-I medium supplemented with 10% fetal bovine serum (FBS, Invitrogen), penicillin (75 mg/l) (Continental Pharma) and antibiotics (Sigma, St Louis, Mo., USA). Geneticin Sulphate (50 μg/ml) (Sigma) was used to suppress fibroblast overgrowth in the culture. Medium was replaced daily during this pre-culture period. At the end of the pre-culture, cells were treated with alloxan (10 mM, Sigma) for 10 min at 37° C. to remove contaminating beta cells, and transferred to 24-well plates (Falcon, BD Biosciences) to form adherent cultures. Adherent monolayers were further cultured with RPMI supplemented with 1% FBS and antibiotics (controls). For growth factor stimulation of neogenesis this medium was supplemented with 50 ng/ml human recombinant epidermal growth factor (EGF) (Sigma,) and 40 ng/ml recombinant mouse leukemia inhibitory factor (LIF) (Sigma) (Baeyens et al. Diabetologia 48:49-57.). Stimulation of Notch signal transduction was performed using the recombinant human ligands Jagged1 (2 μg/ml, R&D Systems) and Dll4 (5 μg/ml, R&D Systems). For effective stimulation, the ligands were immobilized to the bottom of the multiwell plates prior to monolayer formation. Cell monolayers were analyzed after a culture period of 3 days in the latter media. […] Notch signaling inhibition was achieved using a recombinant form of the rat Notch1 extracellular domain (Notch1-EC, 10 μg/ml, R&D Systems). […] Proliferation was performed by bromo-deoxyuridin (BrdU) (Sigma) pulse labeling of 6 hours.
Immunocytochemical staining of the monolayers was performed directly in the 24-well plates. For this purpose, the cell monolayers were fixed for 10 min with 4% buffered formaldehyde followed by 20 min methanol (−20° C.) for cell permeabilization. Tissues were fixed with the same fixative for 4 hours and processed for paraffin embedding. Paraffin sections were used for immunostaining as described (Bouwens et al. 1994 Diabetes 43:1279-1283). Primary antibodies used in this study are polyclonal anti-insulin (C. Van Schravendijk, VUB, Brussels) (Bouwens et al. 1994 Diabetes 43:1279-1283; Bouwens and De 1996. J. Histochem. Cytochem. 44:947-951), polyclonal anti-rat C-peptide-I (O. D. Madsen, Hagedorn Research Institute, Gentofte, Denmark) (Blume et al. 1992. Mol. Endocrinol. 6:299-307), polyclonal anti-Pdx1 (O. D. Madsen) (Rooman et al. 2000 Diabetologia 43:907-914), polyclonal anti-Ngn3 (Schwitzgebel et al. 2000. Development 127:3533-3542), monoclonal anti-cytokeratin-20 (CK20) (Novocastra) (Bouwens et al. 1994 Diabetes 43:1279-1283; Bouwens and De 1996 J. Histochem. Cytochem. 44:947-951), monoclonal anti-synaptophysin (Novocastra), polyclonal anti-MafA (Bethyl Laboratories) (Nishimura et al. 2006 Dev. Biol. 293:526-539), polyclonal anti-Glut2 (Wak-Chemie), polyclonal anti-Mist1 (SF Konieczny) (Pin et al. 2000 Anat. Rec. 259:157-167), polyclonal anti-luciferase (Promega Benelux B. V.), polyclonal anti-IAPP (Advanced Chemtech), polyclonal anti-ChromograninA (Tebu-Bio), anti-BrdU (MP Biomedicals) and polyclonal anti-α-amylase (Sigma). Secondary antibodies conjugated with fluorescein isothiocyanate, tetramethylrodamine isothiocyanate or Cy5 (Jackson Immunoresearch) were used as described previously (Gu et al., 2002 Development 129:2447-2457). DNA was visualized using Hoechst 33342 (Invitrogen).

Notch1 mRNA = assay: knockdown efficiency of shRNA viruses, quantitative RT-PCR: Notch1 mRNA; settings: corrected for actin, normalized to control virus Le-Scrambled-DsRed, n = 3
Text: (§1) Specific RNAi target sequences were developed using dedicated software available through the Whitehead Institute for Biomedical Research website (http://jura.wi.mit.edu/bio/) (Yuan et al. 2004 Nucleic Acids Res. 32:W130-W134). Corresponding oligo DNA molecules (Invitrogen) were cloned in the BglII and HindIII sites of the pSuper.basic vector (Oligoengine). Insert-containing clones were PCR-selected and sequenced. DNA from clones containing correct inserts was cut with EcoRI-ClaI, which released a DNA fragment containing the H1 promoter and the cloned oligo duplex, which was subsequently subcloned in the EcoRI-ClaI sites of the pTrip vector containing a DsRed reporter (Wiznerowicz and Trono 2003, J. Virol. 77:8957-8961). Screening for RNAi activity of the constructs was performed as follows: AR42J-B13 cells were plated at 70% confluency in 24 well plates at day 0. After allowing the cells to attach, 500 ng DNA of the appropriate pTrip constructs was transfected per well. After an additional 24 hours, cells were processed for quantitative RT-PCR analysis, in which 500 ng total RNA was used per condition.
(§2) The data illustrated in Table 7 represent the efficiency of knockdown of the different shRNA viruses, measured by quantitative RT-PCR. All samples are corrected for RNA input (endogenous control: actin) and normalized to conditions transduced with control virus (Le-Scrambled-DsRed). […]

Hes1 mRNA = assay: knockdown efficiency of shRNA viruses, quantitative RT-PCR: Hes1 mRNA; settings: corrected for actin, normalized to control virus Le-Scrambled-DsRed, n = 3
Text: as §1, §2

Substance	toxic effects on the epithelial monolayers (acinar cells)	beta cell neogenesis (acino-insular conversion) (acinar cells)	expression of Ngn3, Pdx1 and insulin (acinar cells)	reduction of the number of newly formed beta cells (acinar cells) [%]	expression of Pdx1 during 72 h exposure to EGF and LIF (FIG. 2C) (acinar cells)	expression of insulin during 72 h exposure to EGF and LIF (FIG. 2E) (acinar cells)	re-expression of Ngn3 during 72 h exposure to EGF and LIF (FIG. 2A) (acinar cells)	Notch1 mRNA expression (Mean ± SEM) (Notch1 mRNA)	Hes1 mRNA expression (Mean ± SEM) (Hes1 mRNA)	higher number of insulin-positive cells (acinar cells; Notch1-EC added to EGF and LIF) [fold]	cells adopting a beta cell phenotype (acinar cells; acinar cell culture, 0.5% in control conditions)	proportion of cells positive for Ngn3, Pdx1 and insulin (acinar cells; excess Notch1-EC in culture medium with EGF and LIF)
Jagged1: recombinant human Notch ligand, immobilized to the plate bottom	no toxic effects	near complete abrogation	strongly inhibited	80	prevents this expression	prevents this expression	almost completely abrogates this pattern	–	–	–	–	–
Dll4: recombinant human Notch ligand, immobilized to the plate bottom	no toxic effects	near complete abrogation	strongly inhibited	80	prevents this expression	prevents this expression	almost completely abrogates this pattern	–	–	–	–	–
Le-Scrambled-DsRed: negative control RNAi lentivirus, shScrambled GGUAUCUACUAGAUGUACU (SEQ ID NO:3), DsRed reporter	–	–	–	–	–	–	–	100.0 ± 0.0	100.0 ± 0.0	–	–	–
Notch1-EC: recombinant form of the rat Notch1 extracellular domain, Notch signaling inhibitor (R&D Systems)	–	–	–	–	amplifies the number of cells expressing Pdx1	amplifies the number of insulin-positive cells	enhances the potency of the differentiation factors	–	–	3	more than 30%	marked increase

From US20100330049A1, “METHOD FOR GENERATING ISLET BETA CELLS FROM DEDIFFERENTIATED EXOCRINE PANCREATIC CELLS” (Vrije Universiteit Brussel, priority 2008, published 2010)
